Laboratory results: patent publication US8785655B2, “Ionic liquid solvents” (Dublin City University, priority 2009, dated 2014)

How the values were obtained:
Candida krusei ATCC 6258 = test: In vitro antifungal activity, MIC by microdilution (NCCLS M27-A)
[1] = tested on: Candida parapsilosis ATCC 22019; test: as above; details: CP
Description: (§1) In vitro antifungal activities of the compounds were evaluated on the collection of fungal strains deposited at the Department of Biological and Medical Sciences, Faculty of Pharmacy, Charles University, Czech Republic. All the isolates were maintained on Sabouraud dextrose agar prior to being tested.
(§2) Minimum inhibitory concentrations (MICs) were determined by the microdilution format of the NCCLS M27-A guidelines. […] RPMI 1640 (Sevapharma, Prague) medium supplemented with L-glutamine and buffered with 0.165 M morpholinepropanesulfonic acid to pH 7.0 was used as the test medium. The wells of the microdilution tray contained 100 μl of the RPMI 1640 medium with 2-fold serial dilutions of the compounds (1000 to 0.24 μmol/l for the new compounds) and 100 μl of inoculum suspension. Fungal inoculum in RPMI 1640 was prepared to give a final concentration of 5×103±0.2 cfu·ml-1. The trays were incubated at 35° C. and MICs were read visually for filamentous fungi and photometrically for yeasts as an optical density (OD) at 540 nm after 24 h and 48 h. The MICs were defined as 80% inhibition of the growth of control. MICs were determined twice and in duplicate. The deviations from the usually obtained were no higher than the nearest concentration value up and down the dilution scale.

[2] = tested on: Klebsiella pneumoniae J 14368/08 ESBL-positive; test: Screen against bacteria, MIC/IC80; assay type: cell-based; details: KP-E
[3] = tested on: Candida albicans ATCC 44859; test: In vitro antifungal activity, MIC by microdilution (NCCLS M27-A)
Escherichia coli CCM4517 = test: Screen against bacteria, MIC/IC80; assay type: cell-based; details: EC
[4] = tested on: Staphylococcus aureus H 5996/08 Methiciline-resistant; test: Screen against bacteria, MIC/IC80; assay type: cell-based; details: MRSA
[5] = tested on: Pseudomonas aeruginosa CCM 1961; test: Screen against bacteria, MIC/IC80; assay type: cell-based; details: PA
[6] = tested on: Trichophyton mentagrophytes 445; test: In vitro antifungal activity, MIC by microdilution (NCCLS M27-A); details: TM
[7] = tested on: Aspergillus fumigatus 231; test: as above; details: AF
Description: as §1, §2

[8] = tested on: Candida albicans ATCC 90028; test: as above
[9] = tested on: Enterococcus sp. J 14365/08; test: Screen against bacteria, MIC/IC80; assay type: cell-based; details: EF
[10] = tested on: Candida lusitaniae 2446/l; test: In vitro antifungal activity, MIC by microdilution (NCCLS M27-A); details: CL
Description: as §1, §2

[11] = tested on: Staphylococcus aureus CCM 4516/08; test: Screen against bacteria, MIC/IC80; assay type: cell-based; details: SA
Candida krusei E28 = test: In vitro antifungal activity, MIC by microdilution (NCCLS M27-A)
Description: All the isolates were maintained on Sabouraud dextrose agar prior to being tested.
as §2

[12] = tested on: Staphylococcus epidermidis H 6966/08; test: Screen against bacteria, MIC/IC80; assay type: cell-based; details: SE
Candida tropicalis 156 = test: In vitro antifungal activity, MIC by microdilution (NCCLS M27-A); details: CT
Description: as §1, §2

[13] = tested on: Klebsiella pneumoniae D 11750/08; test: Screen against bacteria, MIC/IC80; assay type: cell-based; details: KP
Candida glabrata 20/l = test: In vitro antifungal activity, MIC by microdilution (NCCLS M27-A); details: CG
Absidia corymbifera 272 = test: as above; details: AC

Measured: MIC/IC80

CCCCCCCCOS(=O)(=O)[O-].CCOCCOC(=O)C(OC(=O)Cn1cc[n+](C)c1)c1ccccc1 (stereo not drawn) [KG400, RS-3-methyl-1-[1-(ethoxyethoxycarbonyl)-1-phenylmethoxycarbonylmethyl]imidazolium octyl sulphate]
>1 mM: Candida krusei ATCC 6258; CK1, 24 h | Candida krusei ATCC 6258; CK1, 48 h | [1]; 24 h | [1]; 48 h | [2]; 24 h | [2]; 48 h | [3]; CA1, 24 h | [3]; CA1, 48 h | Escherichia coli CCM4517; 24 h | Escherichia coli CCM4517; 48 h | [4]; 24 h | [4]; 48 h | [5]; 24 h | [5]; 48 h | [6]; 72 h | [6]; 120 h | [7]; 24 h | [7]; 48 h | [8]; CA2, 24 h | [8]; CA2, 48 h | [9]; 24 h | [9]; 48 h | [10]; 24 h | [10]; 48 h | [11]; 24 h | [11]; 48 h | Candida krusei E28; CK2, 24 h | Candida krusei E28; CK2, 48 h | [12]; 24 h | [12]; 48 h | Candida tropicalis 156; 24 h | Candida tropicalis 156; 48 h | [13]; 24 h | [13]; 48 h | Candida glabrata 20/l; 24 h | Candida glabrata 20/l; 48 h | Absidia corymbifera 272; 24 h | Absidia corymbifera 272; 48 h

CCOCCOC(=O)[C@H](OC(=O)C[n+]1ccn(C)c1)c1ccccc1 [KG835, R-3-methyl-1-[1-(ethoxyethoxycarbonyl)-1-phenylmethoxycarbonylmethyl]imidazolium bromide]
>1 mM: Candida krusei ATCC 6258; CK1, 24 h | Candida krusei ATCC 6258; CK1, 48 h | [1]; 24 h | [1]; 48 h | [2]; 24 h | [2]; 48 h | [3]; CA1, 24 h | [3]; CA1, 48 h | Escherichia coli CCM4517; 24 h | Escherichia coli CCM4517; 48 h | [4]; 24 h | [4]; 48 h | [5]; 24 h | [5]; 48 h | [6]; 72 h | [6]; 120 h | [7]; 24 h | [7]; 48 h | [8]; CA2, 24 h | [8]; CA2, 48 h | [9]; 24 h | [9]; 48 h | [10]; 24 h | [10]; 48 h | [11]; 24 h | [11]; 48 h | Candida krusei E28; CK2, 24 h | Candida krusei E28; CK2, 48 h | [12]; 24 h | [12]; 48 h | Candida tropicalis 156; 24 h | Candida tropicalis 156; 48 h | [13]; 24 h | [13]; 48 h | Candida glabrata 20/l; 24 h | Candida glabrata 20/l; 48 h | Absidia corymbifera 272; 24 h | Absidia corymbifera 272; 48 h

CCOCCOC(=O)C(C)OC(=O)Cn1cc[n+](C)c1.[Br-] (stereo not drawn) [KG160, RS-3-methyl-1-[1-(ethoxyethoxycarbonyl)-1-methylmethoxycarbonylmethyl]imidazolium bromide]
>1 mM: Candida krusei ATCC 6258; CK1, 24 h | Candida krusei ATCC 6258; CK1, 48 h | [1]; 24 h | [1]; 48 h | [2]; 24 h | [2]; 48 h | [3]; CA1, 24 h | [3]; CA1, 48 h | Escherichia coli CCM4517; 24 h | Escherichia coli CCM4517; 48 h | [4]; 24 h | [4]; 48 h | [5]; 24 h | [5]; 48 h | [6]; 72 h | [6]; 120 h | [7]; 24 h | [7]; 48 h | [8]; CA2, 24 h | [8]; CA2, 48 h | [9]; 24 h | [9]; 48 h | [10]; 24 h | [10]; 48 h | [11]; 24 h | [11]; 48 h | Candida krusei E28; CK2, 24 h | Candida krusei E28; CK2, 48 h | [12]; 24 h | [12]; 48 h | Candida tropicalis 156; 24 h | Candida tropicalis 156; 48 h | [13]; 24 h | [13]; 48 h | Candida glabrata 20/l; 24 h | Candida glabrata 20/l; 48 h | Absidia corymbifera 272; 24 h | Absidia corymbifera 272; 48 h
